Patent US20050020611A1, “Compounds” (priority 2003, published 2005)

Experiments:
[1] = system: TNFα release from human peripheral blood mononuclear cells; assay: Inhibition of LPS-stimulated TNFα release from human peripheral blood mononuclear cells (TNFα screen, ELISA); format: cell-based; settings: human PBMC, 18 hours incubation, TNFα in supernatant by ELISA
Protocol: Venous blood is collected from healthy volunteers and the mononuclear cells purified by centrifugation through Histopaque (Ficoll) cushions. TNFα production from these cells is stimulated by addition of lipopolysaccharide. After 18 hours incubation in the presence of LPS, the cell supernatant is removed and the concentration of TNFα in the supernatant determined by ELISA.

PDE4 = PDE4 inhibition: hydrolysis of tritium labelled cAMP to AMP, SPA bead scintillation counting; format: biochemical; settings: 50% reduction in counts compared to PDE4 only control wells
Protocol: The PDE4 inhibitory activity of the nicotinamide derivatives of the formula (I) is determined by the ability of compounds to inhibit the hydrolysis of cAMP to AMP by PDE4 (Thompson J W, Teraski W L, Epstein P M, Strada S J., “Assay of nucleotidephosphodiesterase and resolution of multiple molecular forms of the isoenzyme”, Advances in cyclic nucleotides research, edited by Brooker G, Greengard P, Robinson G A. Raven Press, New York 1979, 10, p. 69-92). Tritium labelled cAMP is incubated with PDE4. Following incubation, the radiolabelled AMP produced is able to bind yttrium silicate SPA beads. These SPA beads subsequently produce light that can be quantified by scintillation counting. The addition of a PDE4 inhibitor prevents the formation of AMP from cAMP and counts are diminished. The IC50 of a PDE4 inhibitor can be defined as the concentration of a compound that leads to a 50% reduction in counts compared to the PDE4 only (no inhibitor) control wells.

Compound | IC50 [1] | IC50 (PDE4)
COc1ccccc1-c1cc(C(=O)N[C@H]2CC[C@@H](NC(=O)c3cc(F)cnc3OC3CCSCC3)CC2)n[nH]1 [Example 2, Syn-5-Fluoro-N-(4-{[5-(2-methoxy-phenyl)-1H-pyrazole-3-carbonyl]-amino}-cyclohexyl)-2-(tetrahydro-thiopyran-4-yloxy)-nicotinamide] | 1.5 nM | –
O=C(N[C@H]1CC[C@@H](NC(=O)c2cc(F)cnc2OC2CCSCC2)CC1)c1ccc(O)cc1OC1CCCC1 [Example 24, Syn-N-[4-(2-Cyclopentoxy-4-hydroxy-benzoylamino)-cyclohexyl]-5-fluoro-2-(tetrahydro-thiopyran-4-yloxy)-nicotinamide] | 0.1 nM | –
COc1ccc2cccnc2c1S(=O)(=O)N[C@H]1CC[C@@H](NC(=O)c2cccnc2OC2CCSCC2)CC1 [Example 29, Syn-N-[4-(7-methoxy-quinoline-8-sulfonylamino)-cyclohexyl]-2-(tetrahydro-thiopyran-4-yloxy)-nicotinamide] | 0.4 nM | –
COc1ccc2cccnc2c1S(=O)(=O)N[C@H]1CC[C@@H](NC(=O)c2cc(F)cnc2OC2CCSCC2)CC1 [Example 28, Syn-5-Fluoro-N-[4-(7-methoxy-quinoline-8-sulfonylamino)-cyclohexyl]-2-(tetrahydro-thiopyran-4-yloxy)-nicotinamide] | 0.2 nM | –
COc1ccn2ccnc2c1C(=O)N[C@H]1CC[C@@H](NC(=O)c2cc(F)cnc2OC2CCSCC2)CC1 [Example 3, Syn-7-Methoxy-imidazo[1,2-a]pyridine-8-carboxylic acid(4-{[5-fluoro-2-(tetrahydro-thiopyran-4-yloxy)-pyridine-3-carbonyl]-amino}-cyclohexyl)amide] | 0.02 nM | –
O=C(N[C@H]1CC[C@@H](NC(=O)c2cc(F)cnc2OC2CCSCC2)CC1)c1ccc(O)cc1OCC1CC1 [Example 23] | 0.2 nM | –
COc1ccc(C)cc1S(=O)(=O)N[C@H]1CC[C@@H](NC(=O)c2cccnc2OC2CCSCC2)CC1 [Example 27, Syn-N-[4-(2-methoxy-5-methyl-benzenesulfonylamino)-cyclohexyl]-2-(tetrahydro-thiopyran-4-yloxy)-nicotinamide] | 5 nM | –

Next, values leading:

IC50 [1] | IC50 (PDE4) | Compound
0.7 nM | – | COc1cc(O)ccc1C(=O)N[C@H]1CC[C@@H](NC(=O)c2cc(F)cnc2OC2CCSCC2)CC1 [Example 1]
0.04 nM | 1.5 nM | O=C(N[C@H]1CC[C@@H](NC(=O)c2cc(F)cnc2OC2CCSCC2)CC1)c1ccccc1OCCO [Example 4, Syn-5-Fluoro-N-{4-[2-(2-hydroxy-ethoxy)-benzoylamino]-cyclohexyl}-2-(tetrahydro-thiopyran-4-yloxy)-nicotinamide]
4 nM | – | Cc1cnc(OC2CCSCC2)c(C(=O)N[C@H]2CC[C@@H](NC(=O)c3ccccc3OCCO)CC2)c1 [Example 13, Syn-N-{4-[2-(2-Hydroxy-ethoxy)-benzoylamino]-cyclohexyl}-5-methyl-2-(tetrahydro-thiopyran-4-yloxy)-nicotinamide]
0.1 nM | 2.8 nM | Cc1cccc(C(=O)N[C@H]2CC[C@@H](NC(=O)c3cc(F)cnc3OC3CCSCC3)CC2)c1OCCO [Example 9]
0.2 nM | – | CCOc1cc(O)ccc1C(=O)N[C@H]1CC[C@@H](NC(=O)c2cc(F)cnc2OC2CCSCC2)CC1 [Example 22, Syn-N-[4-(2-Ethoxy-4-hydroxy-benzoylamino)-cyclohexyl]-5-fluoro-2-(tetrahydro-thiopyran-4-yloxy)-nicotinamide]
0.02 nM | 1 nM | Cc1ccc(OCCO)c(C(=O)N[C@H]2CC[C@@H](NC(=O)c3cc(F)cnc3OC3CCSCC3)CC2)c1 [Example 5]
0.1 nM | – | O=C(N[C@H]1CC[C@@H](NC(=O)c2cc(F)cnc2OC2CCSCC2)CC1)c1ccccc1OCCCO [Example 14, Syn-5-Fluoro-N-{4-[2-(3-hydroxy-propoxy)-benzoylamino]-cyclohexyl}-2-(tetrahydro-thiopyran-4-yloxy)-nicotinamide]
0.04 nM | 5 nM | Cc1ccc(C(=O)N[C@H]2CC[C@@H](NC(=O)c3cc(F)cnc3OC3CCSCC3)CC2)c(OCCO)c1 [Example 10]
